From patent US20250090640A1, “METHOD OF IMPROVING THE VIABILITY OF A DENTAL IMPLANT” (priority 2023, published 2025)

Columns and labels:
[1] = system: patients with severe, chronic periodontal disease; details: 6-week course of daily injections (20 mcg) from 3 days prior to surgery, with oral calcium and vitamin D; cited from earlier work
OVX rats = system: OVX rats; set-up: species or system Sprague-Dawley rats; details: rat, in vivo
Source text: In this study, Sprague-Dawley rats were divided into three groups (Table 1) to study the impact of abaloparatide treatment on implant viability in rats in a model that mimics osteoporosis by ovariectomy (OVX).
At four months, rats in the OVX groups were ovariectomized, and bone depletion was allowed to occur for two months. At this point, daily injections of abaloparatide (Abalo) or vehicle (VEH) began 42 days prior to implant surgery and were continued out to 21 days past implant surgery.
As shown in FIGS. 2A-2C, 3A-3F, and 4A-4C, altered bone metabolism in the OVX rats and residual ridge defects complicated implant placement. […] However, abaloparatide did increase bone mass density in the femoral shaft and intact maxillac on the non-extraction side of the jaw (FIGS. 4A and 4B, respectively). With continued reference to FIGS. 4A and 4B, there was a 150% increase in mean BMD in OVX rats treated with ABL versus VEH.

| SMILES | clinical outcomes relative to placebo during the year following periodontal surgery [1] | relationship of unexpected healing complications after tooth extraction to treatment (OVX rats) |
| --- | --- | --- |
| CC[C@H](C)[C@H](NC(=O)[C@H](CCC(=O)O)NC(=O)[C@H](CO)NC(=O)[C@@H](NC(=O)[C@@H](N)CO)C(C)C)C(=O)N[C@@H](CCC(N)=O)C(=O)N[C@@H](CC(C)C)C(=O)N[C@@H](CCSC)C(=O)N[C@@H](Cc1cnc[nH]1)C(=O)N[C@@H](CC(N)=O)C(=O)N[C@@H](CC(C)C)C(=O)NCC(=O)N[C@@H](CCCCN)C(=O)N[C@@H](Cc1cnc[nH]1)C(=O)N[C@@H](CC(C)C)C(=O)N[C@@H](CC(N)=O)C(=O)N[C@@H](CO)C(=O)N[C@@H](CCSC)C(=O)N[C@@H](CCC(=O)O)C(=O)N[C@@H](CCCN=C(N)N)C(=O)N[C@H](C(=O)N[C@@H](CCC(=O)O)C(=O)N[C@@H](Cc1c[nH]c2ccccc12)C(=O)N[C@@H](CC(C)C)C(=O)N[C@@H](CCCN=C(N)N)C(=O)N[C@@H](CCCCN)C(=O)N[C@@H](CCCCN)C(=O)N[C@@H](CC(C)C)C(=O)N[C@@H](CCC(N)=O)C(=O)N[C@@H](CC(=O)O)C(=O)N[C@H](C(=O)N[C@@H](Cc1cnc[nH]1)C(=O)N[C@@H](CC(N)=O)C(=O)N[C@@H](Cc1ccccc1)C(=O)O)C(C)C)C(C)C [Teriparatide] | improved clinical outcomes |  |
| CC[C@H](C)[C@H](NC(=O)[C@H](CO)NC(=O)[C@H](CCCCN)NC(=O)CNC(=O)[C@H](CCCCN)NC(=O)[C@H](CC(=O)O)NC(=O)[C@H](Cc1cnc[nH]1)NC(=O)[C@H](CC(C)C)NC(=O)[C@H](CC(C)C)NC(=O)[C@H](CCC(N)=O)NC(=O)[C@H](Cc1cnc[nH]1)NC(=O)[C@H](CCC(=O)O)NC(=O)[C@H](CO)NC(=O)[C@@H](NC(=O)[C@H](C)N)C(C)C)C(=O)N[C@@H](CCC(N)=O)C(=O)N[C@@H](CC(=O)O)C(=O)N[C@@H](CC(C)C)C(=O)N[C@@H](CCCNC(=N)N)C(=O)N[C@@H](CCCNC(=N)N)C(=O)N[C@@H](CCCNC(=N)N)C(=O)N[C@@H](CCC(=O)O)C(=O)N[C@@H](CC(C)C)C(=O)N[C@@H](CC(C)C)C(=O)N[C@@H](CCC(=O)O)C(=O)N[C@@H](CCCCN)C(=O)N[C@@H](CC(C)C)C(=O)N[C@@H](CC(C)C)C(=O)NC(C)(C)C(=O)N[C@@H](CCCCN)C(=O)N[C@@H](CC(C)C)C(=O)N[C@@H](Cc1cnc[nH]1)C(=O)N[C@H](C(=O)N[C@@H](C)C(N)=O)[C@@H](C)O [abaloparatide, [Glu^22,25, Leu^23,28,31, Aib^29, Lys^26,30]hPTHrP(1-34)NH2] |  | no relationship |
